Laboratory results as given in patent publication US20230312643A1, “PEPTIDE DERIVATIVE WITH COLLAGENASE INHIBITORY ACTIVITY, AND USE THEREOF” (SUNMARINE BIOTECH, priority 2020, published 2023).

Tests used:
gelatinase = assay: Gelatinase inhibitory activity (EnzChek Gelatinase/Collagenase Assay Kit, DQ gelatin); type: biochemical
Description: Gelatinase is an enzyme which plays a major role in promoting skin aging by more finely degrading collagen fragments digested by MMP-1 with MMP-2, and wrinkle reduction activity was determined by measuring the inhibitory activity of the enzyme.
(§1) Gelatinase inhibitory activity was performed by purchasing EnzChek® Gelatinase/Collagenase Assay Kit (250-2000 Assays) reagent from Invitrogen. First, DQ gelatin stock solution (1 mg/ml) was prepared by adding 1.0 ml of DDW to 1 mg DQ gelatin vial. The 18 ml of DDW was added to 2 ml of 10× reaction buffer, so as to dilute reaction buffer. Then, a gelatinase enzyme reagent was prepared, and diluted with reaction buffer to a final concentration of 0.2 U/ml as working solution. Three samples of 50 ? each were prepared in a 96-well plate. The 30 ? of reaction buffer was added to 20 ? of DQ gelatin and sample blank, and 30 ? of working solution was added to a sample, which were then left in a light-blocked state at room temperature for about one to two hours, and then fluorescence intensity was measured at excitation wavelength 485 nm and 535 nm using ELISA plate reader (VICTOR X3™, PerkinElmer, US).

elastase = target: T1, elastase (Sus scrofa, UniProt P00772); assay: Elastase inhibitory activity (EnzChek Elastase Assay Kit, DQ elastin); type: biochemical; conditions: for inhibition at 20 µg/mL: 0.02 mg/ml; for inhibition at 40 µg/mL: 0.04 mg/ml; for inhibition at 60 µg/mL: 0.06 mg/ml
T1 construct: purchased Invitrogen
T1 sequence (P00772 27-266): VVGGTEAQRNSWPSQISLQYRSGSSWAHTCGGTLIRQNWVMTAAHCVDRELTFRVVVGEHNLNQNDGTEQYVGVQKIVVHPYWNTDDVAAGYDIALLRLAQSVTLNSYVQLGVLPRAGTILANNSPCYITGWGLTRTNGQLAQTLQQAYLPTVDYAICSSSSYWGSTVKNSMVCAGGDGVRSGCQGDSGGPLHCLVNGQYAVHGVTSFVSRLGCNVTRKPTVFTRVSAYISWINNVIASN
Description: Elastase inhibitory activity was performed by purchasing EnzChek® Elastase Assay Kit (600 Assays) reagent from Invitrogen. First, DQ elastin stock solution (1 mg/ml) was prepared by adding 1.0 ml of DDW to 1 mg DQ elastin vial. The 18 ml of DDW was added to 2 ml of 10× reaction buffer, so as to dilute reaction buffer. Then, an elastase enzyme reagent was prepared, and diluted with reaction buffer to a final concentration of 0.2 U/ml as working solution. Three samples of 50 ? each were prepared in a 96-well plate. The 50 ? of reaction buffer was added to 50 ? of DQ elastin and sample blank, and 50 ? of working solution was added to a sample, which were then left in a light-blocked state at room temperature for about one hour, and then fluorescence intensity was measured at excitation wavelength 505 nm and emission wavelength 515 nm using ELISA plate reader (VICTOR X3™, PerkinElmer, US).
Copper peptide (Comparative Example 12) and EGCg (Comparative Example 13), which is widely used as a raw material for functional cosmetics, were prepared at the same concentration and used as a positive control.
EGCg (epigallocatechin gallate) is a kind of polyphenol, which is an extract of green tea leaves, and is used as a cosmetic raw material for anti-oxidation, inflammation reduction, and wrinkle alleviation, and Copper peptide is used as a raw material for promoting wound healing, strengthening skin elasticity, and increasing subcutaneous fat layer to suppress skin aging due to excellent skin regeneration ability.

MMP1 protein (pdb1cgl) [1] = target: T2, MMP1 protein (pdb1cgl) (Homo sapiens, UniProt P03956); conditions: ligand binding to pdb; cited from earlier work
T2 sequence (P03956 101-269 limits assumed): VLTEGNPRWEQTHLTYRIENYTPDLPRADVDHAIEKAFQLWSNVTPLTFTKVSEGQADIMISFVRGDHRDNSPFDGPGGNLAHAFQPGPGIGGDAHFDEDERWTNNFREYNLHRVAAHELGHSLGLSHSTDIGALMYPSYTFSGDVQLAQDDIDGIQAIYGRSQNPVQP

[2] = HaCaT cytotoxicity test (MTS cell viability); type: cell-based; conditions: human, HaCaT cells (skin epidermal cells); for viability at 24 h, 1 µg/mL: 1 μg/ml; for viability at 24 h, 10 µg/mL: 10 μg/ml; for viability at 24 h, 50 µg/mL: 50 μg/ml; for viability at 24 h, 100 µg/mL: 100 μg/ml
Description: HaCaT cells, skin epidermal cells (derived from human), were used. The medium was DMEM low (SH30021.01, HyClone™, Logan, UT, USA) medium containing 10% fetal bovine serum (FBS, Lonza, Valais, Switzerland) medium. The cell lines were cultured in an incubator adjusted to 95% humidity, 5% CO2 and 37° C., and at this time, a medium antibiotic (Penicillin streptomycin, Gibco, Calif., USA) was used to suppress contamination or proliferation of microorganisms. When the cells covered the dish about 80%, the cells were washed with phosphated-buffered saline-EDTA (PBS-EDTA), and then the cells attached to the bottom of the dish were detached by treating with 1 ml of 0.05% trypsin EDTA, and subjected to subculture. The medium was exchanged every 48 hours to culture the cells.
Cell viability was measured using MTS (CellTiter 96® AQueous One Solution Cell Proliferation Assay, Promega, USA) reagent. The cells were divided at a concentration of 1×10^4 cells/well in a 96-well plate and then stabilized for 24 hours in an incubator controlled to 95% humidity, 5% CO2 and 37° C. After that, the samples were treated for each concentration (table 1) and cultured for 24 hours in an incubator controlled to 95% humidity, 5% CO2 and 37° C. After the medium was removed, 9 ml of medium (DMEM low, free FBS) was added to 1 ml of the reagent and diluted, and then 100 ul of the diluted solution was treated per well. After the reaction at 37° C. for 60 minutes, absorbance was measured at 490 nm with microplate reader (Molecular Devices, VersaMax ELISA Microplate Reader, USA). Cell viability was represented by absorbance of a sample-treated group compared to a control group not treated with the sample.

collagenase = assay: Collagenase inhibitory activity (EnzChek Gelatinase/Collagenase Assay Kit, DQ collagen); type: biochemical
Description: as §1, with “Collagenase inhibitory activity” for “Gelatinase inhibitory activity”, “First, DQ collagen stock solution” for “First, DQ gelatin stock solution”, “mg DQ collagen vial. The” for “mg DQ gelatin vial. The”, “Then, a collagenase enzyme reagent” for “Then, a gelatinase enzyme reagent”, “of DQ collagen and sample” for “of DQ gelatin and sample”, “nm and emission wavelength 535 nm” for “nm and 535 nm”
As a positive control, copper peptide (Comparative Example 12), which is a representative peptide widely used as a raw material for functional cosmetics, was prepared at the same concentration and used. Copper peptide has excellent skin regeneration ability and thus is used as a raw material to suppress skin aging by promoting wound healing, strengthening skin elasticity, and increasing subcutaneous fat layers.

[3] = HS68 cytotoxicity test (MTS cell viability); type: cell-based; conditions: human, HS68 cells (skin fibroblasts); for viability at 24 h, 1 µg/mL: HS68, 1 μg/ml; for viability at 24 h, 10 µg/mL: HS68, 10 μg/ml; for viability at 24 h, 50 µg/mL: HS68, 50 μg/ml; for viability at 24 h, 100 µg/mL: HS68, 100 μg/ml
Description: (§2) Skin fibroblast HS68 cells were used. The medium was DMEM high glucose (SH30243.01, HyClone™, Logan, UT, USA) medium containing 10% fetal bovine serum (FBS, Lonza, Valais, Switzerland) medium. The cell lines were cultured in an incubator adjusted to 95% humidity, 5% CO2 and 37° C., and at this time, a medium antibiotic (Penicillin streptomycin, Gibco, Calif., USA) was used to suppress contamination or proliferation of microorganisms.
(§3) Cell viability was measured using MTS (CellTiter 96® AQueous One Solution Cell Proliferation Assay, Promega, USA) reagent. The cells were divided at a concentration of 1×10^4 cells/well in a 96-well plate and then stabilized for 24 hours in an incubator controlled to 95% humidity, 5% CO2 and 37° C. After that, the samples were treated for each concentration and cultured for 24 hours in an incubator controlled to 95% j humidity, 5% CO2 and 37° C. After the medium was removed, 9 ml of medium (DMEM high, free FBS) was added to 1 ml of the reagent and diluted, and then 100 ul of the diluted solution was treated per well. After the reaction at 37° C. for 60 minutes, absorbance was measured at 490 nm with microplate reader (Molecular Devices, VersaMax ELISA Microplate Reader, USA). Cell viability was represented by absorbance of a sample-treated group compared to a control group not treated with the sample.

MMP1 protein (pdb1cgl) [4] = target: T2, MMP1 protein (pdb1cgl); assay: Molecular docking (SYBYL-X 2.1.1, Surflex-Dock 2.7) of binding affinity to collagenase; conditions: from Surflex-Dock total score
Description: Molecular modeling was conducted through a computer simulation program.
Target structure: MMP1 protein (pdb1cgl)
Software: SYBYL-X 2.1.1, Surflex-Dock2.7
Through a computer simulation program, a study was conducted on how to promote collagenase enzyme inhibitory activity and percutaneous absorption during peptide modification.
Total score is a value indicating the degree of binding affinity of a docked structure including a crash and a polar interaction in the unit of pKd, and the larger the value, the higher the binding affinity. And, the similarity is a value comparing the similarity with the structure already bonded to the 1cgl, and means that the closer to 1, the more similar. The result of such docking means that the addition of an appropriate modification residue through a docking simulation of computer chemistry may increase the binding affinity and similarity.
However, when compared with the overall consensus score, a binding affinity similar to or higher than that of pdb1cgl_ligand may be expected, particularly in the modified GPN and PGN, too.

HS68 cells = assay: HS68 cytotoxicity test (MTS cell viability); type: cell-based; conditions: HS68, 50 μg/ml, 24 hours
Description: as §2, §3

inhibition at 20 µg/mL (elastase) [%] | inhibition at 40 µg/mL (elastase) [%] | inhibition at 60 µg/mL (elastase) [%] | inhibition at 100 µg/mL (elastase; 0.1 mg/ml) [%] | binding affinity compared to 1cgl ligand (MMP1 protein (pdb1cgl) [4]) | SMILES | viability at 24 h, 1 µg/mL [2] [%] | viability at 24 h, 10 µg/mL [2] [%] | viability at 24 h, 50 µg/mL [2] [%] | viability at 24 h, 100 µg/mL [2] [%] | viability at 24 h, 1 µg/mL [3] [%] | viability at 24 h, 10 µg/mL [3] [%] | viability at 24 h, 100 µg/mL [3] [%] | further results
– | – | – | – | – | O=C(O[C@@H]1Cc2c(O)cc(O)cc2O[C@@H]1c1cc(O)c(O)c(O)c1)c1cc(O)c(O)c(O)c1 [EGCg, epigallocatechin gallate, reference compound] | – | – | – | – | – | – | – | Gelatinase inhibitory activity (gelatinase; 0.5 mg/ml): 74.7%; elastase inhibitory activity (elastase; 0.1 mg/ml): 66.1 ± 4.4%; elastase inhibitory activity (elastase; 1 mg/ml): 66.1%
– | – | – | – | – | COC(=O)NCC[C@@H](N[C@@H](CC(C)C)C(=O)N[C@@H](Cc1ccccc1)C(=O)NCCN1CCOCC1)C(=O)O [PDB 1CGL] | – | – | – | – | – | – | – | Ki (MMP1 protein (pdb1cgl) [1]): 0.135 µM
0.3 ± 0.9 | 1.2 ± 2.8 | 1.5 ± 2 | 5.2 ± 2.9 | – | CCCCCCCCCCCCCCCC(=O)N1CCC[C@H]1C(=O)NCC(=O)N[C@@H](CC(N)=O)C(=O)O [Pal-PGN] | 115 ± 10 | 112 ± 3.7 | 113 ± 7.7 | 108 ± 6.5 | 106 ± 2.9 | 111 ± 2.8 | 116 ± 3.3 | viability at 24 h, 50 µg/mL [3]: 105 ± 3.3%
– | – | – | – | about 51.8% | NCC(=O)N1CCC[C@H]1C(=O)N[C@@H](CC(N)=O)C(=O)O [GPN, Gly-Pro-Asn, reference compound] | – | – | – | – | – | – | – | –
– | – | – | – | 74.7% | CCCC(=O)C(CC(N)=O)NC(=O)C1CCCN1C(=O)CNC (centres unmarked) [Me-GPN-Propyl] | – | – | – | – | – | – | – | increase of binding affinity compared to before the modification (MMP1 protein (pdb1cgl) [4]): 21.9%
5.2 ± 1.7 | 6.9 ± 1.8 | 9.9 ± 1.5 | 11.2 ± 1.1 | – | CN1CCC[C@H]1C(=O)NCC(=O)N[C@@H](CC(N)=O)C(=O)O [Me-PGN] | 125 ± 6.1 | 127 ± 6.5 | 122 ± 3.7 | 126 ± 14.8 | 103 ± 3.9 | 104 ± 4.5 | 104 ± 5.6 | Cell viability (HS68 cells): 103 ± 3.4%; inhibition at 1000 µg/mL (elastase; 1 mg/ml): 11.2%
– | – | – | – | 90.1% | CCCC(=O)C(CC(N)=O)NC(=O)CNC(=O)C1CCCN1C (centres unmarked) [Me-PGN-Propyl] | – | – | – | – | – | – | – | increase of binding affinity compared to before the modification (MMP1 protein (pdb1cgl) [4]): 28.6%

SMILES | inhibition at 20 µg/mL (elastase) [%] | inhibition at 40 µg/mL (elastase) [%] | inhibition at 60 µg/mL (elastase) [%] | inhibition at 100 µg/mL (elastase; 0.1 mg/ml) [%] | binding affinity compared to 1cgl ligand (MMP1 protein (pdb1cgl) [4]) | viability at 24 h, 1 µg/mL [2] [%] | viability at 24 h, 10 µg/mL [2] [%] | viability at 24 h, 50 µg/mL [2] [%] | viability at 24 h, 100 µg/mL [2] [%] | viability at 24 h, 1 µg/mL [3] [%] | viability at 24 h, 10 µg/mL [3] [%] | viability at 24 h, 100 µg/mL [3] [%] | further results
CCCOC(=O)[C@H](CC(N)=O)NC(=O)CNC(=O)[C@@H]1CCCN1 [PGN-OPr, PGN(Pro-Gly-Asn)-OPr] | 17.3 ± 1.1 | 27.5 ± 2.5 | 34.2 ± 0.5 | 77.6 ± 2.8 | – | 117 ± 9.6 | 126 ± 14.1 | 130 ± 13.3 | 128 ± 5.3 | 107 ± 2.4 | 107 ± 8.9 | 116 ± 3.6 | Gelatinase inhibitory activity (gelatinase; 0.2 mg/ml): 16.9 ± 2.7%; Gelatinase inhibitory activity (gelatinase; 0.3 mg/ml): 54.2 ± 6.3%; Gelatinase inhibitory activity (gelatinase; 0.4 mg/ml): 96.4 ± 1.8%; Gelatinase inhibitory activity (gelatinase; 0.5 mg/ml): 98.9%; gelatinase inhibitory activity, times higher than that of Copper peptide (gelatinase; 0.5 mg/ml): ~15 times; gelatinase inhibitory activity, times higher than that of EGCg (gelatinase; 0.5 mg/ml): about 1.3 times; Collagenase inhibitory activity (collagenase; 0.05 mg/ml): 5.7 ± 3.1%; Collagenase inhibitory activity (collagenase; 0.1 mg/ml): 14.3 ± 5.2%; Collagenase inhibitory activity (collagenase; 0.5 mg/ml): 67.1 ± 0.8%; Collagenase inhibitory activity (collagenase; 1 mg/ml): 98.7%; collagenase inhibitory activity IC50 (collagenase; FIGS. 5 and 6): 508 µg/mL; viability at 24 h, 50 µg/mL [3]: 115 ± 6.9%; inhibition at 1000 µg/mL (elastase; 1 mg/ml): 77.6%; IC50 (elastase; FIGS. 8 and 9): 216 µM
